Experimental data from ChEMBL document CHEMBL3091297, “Antiprion compounds that reduce PrP(Sc) levels in dividing and stationary-phase cells” (Bioorg Med Chem, 2013).

Assays:
[1] = tested on: N2a-cl3; assay: Inhibition of RML prion protein infected in mouse dividing ScN2a-cl3 cells expressing full length mouse PrP assessed as reduction of PrPsc level at 10 uM after 5 days by ELISA; assay type: cell-based
[2] = tested on: N2a-cl3; assay: Inhibition of RML prion protein infected in mouse stationary-phase ScN2a-cl3 cells expressing full length mouse PrP assessed as reduction of PrPsc level at 10 uM after 5 days by ELISA; assay type: cell-based
[3] = cells; assay type: cell-based; conditions: Mus musculus, N2a-cl3, 120 h
[4] = Inhibition of RML prion protein infected in mouse dividing ScN2a-cl3 cells expressing full length mouse PrP assessed as reduction of PrPsc level after 5 days by Western blotting analysis; assay type: cell-based; conditions: N2a-cl3, 120 h
[5] = in vitro; conditions: mouse, dividing ScN2a-cl3 cells
[6] = AUClast in FVB mouse plasma at 10 mg/kg, po qd; assay type: ADME, organism-based; set-up: time 0 - last, dose 10 mg/kg, route oral
[7] = Cmax in FVB mouse plasma at 10 mg/kg, po qd; assay type: ADME, organism-based; set-up: dose 10 mg/kg, route oral
[8] = Ratio of AUClast in FVB mouse brain to FVB mouse plasma; assay type: ADME; conditions: read-out: Ratio AUC
[9] = AUClast in FVB mouse brain at 10 mg/kg, po qd; assay type: ADME, organism-based; set-up: time 0 - last, dose 10 mg/kg, route oral
[10] = Inhibition of RML prion protein infected in mouse stationary-phase ScN2a-cl3 cells expressing full length mouse PrP assessed as reduction of PrPsc level after 5 days; assay type: cell-based; conditions: N2a-cl3, 120 h
[11] = Cytotoxicity against mouse stationary-phase ScN2a-cl3 cells assessed as cell viability after 5 days by calcein-AM staining-based fluorescence assay; set-up: species or system N2a-cl3; conditions: read-out: LC50

| SMILES | inhibition [1] [%] | inhibition [2] [%] | EC50 [3] [nM] | EC50 [4] [nM] | further results |
| --- | --- | --- | --- | --- | --- |
| O=C(Nc1ccc(F)c(Cl)c1)Nc1ccc(Cl)c(Cl)c1 | 92 | 61 | – | – | – |
| CC(=O)c1ccc(N2CCN(Cc3ccc(Br)s3)CC2)cc1 | 97 | 34 | – | – | – |
| c1ccc2cc(-c3cn4ccsc4n3)ccc2c1 | – | – | 6020 | 2490 | – |
| COc1ccc(-c2cc(-c3ccc(C)cc3O)[nH]n2)cc1 | – | – | 260 | 120 | – |
| COc1ccc(-c2cc(-c3ccc(OC)cc3O)[nH]n2)cc1 | – | – | 70 | 100 | – |
| COc1ccc(CCNC(=O)c2sc3nc(-c4cccs4)ccc3c2N)cc1OC | – | – | > 10000 | – | CC50 at 120 h [5]: > 10000 nM |
| Cc1ccc2c(c1)c1c(n2CC(O)CO)C(=O)CCC1 (stereo not drawn) | 14 | 39 | – | – | – |
| COc1ccc(-c2ccc3c(N)c(C(=O)Nc4ccc(OC)c(OC)c4)sc3n2)cc1 | – | – | > 10000 | – | CC50 at 120 h [5]: > 10000 nM |
| CC(=O)c1ccc(NC(=O)c2sc3nc4c(cc3c2N)CCCC4)cc1 | – | – | > 10000 | – | CC50 at 120 h [5]: > 10000 nM |
| N#Cc1sc2nc(-c3ccc4c(c3)OCO4)ccc2c1N | – | – | 980 | 520 | AUC(0-t) [6]: 1.56 µM·h; Cmax [7]: 130 nM; Kp [8]: 4.72; AUC(0-t) [9]: 7.36 µM·h |
| COc1ccc2cc3c(N)c(C(=O)Nc4ccc(C(C)=O)cc4)sc3nc2c1 | – | – | 80 | 60 | CC50 at 120 h [5]: > 10000 nM |
| CN(C)CCNc1nc(-c2ccc(Cl)cc2)nc2ccccc12 | – | – | 2650 | 2010 | – |
| COc1cc(CN2CCN(c3cccc(C)c3C)CC2)cc(Br)c1O | 22 | 48 | – | – | – |
| Cn1c(=N)n(CC(=O)c2ccc(Br)cc2)c2ccccc21 | – | – | 2580 | 1450 | – |
| COc1ccc2[nH]c3c(OC)ncnc3c2c1 | 81 | 37 | – | – | – |
| CCOc1ccc(C(=O)Nc2ccc3oc(-c4ccc(OC)cc4)nc3c2)cc1 | – | – | 60 | 130 | – |
| COc1cc(CNCCO)cc(Br)c1OCc1ccccc1Cl | – | – | 4830 | 2740 | – |
| CC(=O)c1ccc2c(c1)N(CCCN(C)C)c1ccccc1S2 [ACEPROMAZINE] | – | – | 6930 | – | CC50 at 120 h [5]: > 10000 nM |
| COc1ccc(-c2ccc3c(N)c(C(=O)Nc4ccc(SC)cc4)sc3n2)cc1 | – | – | 290 | – | CC50 at 120 h [5]: > 10000 nM |
| Nc1c(C(=O)Nc2ccc3c(c2)OCCO3)sc2nc(-c3cccs3)ccc12 | – | – | 420 | – | CC50 at 120 h [5]: > 10000 nM |
| COc1ccc(CN2CCN(c3ccc(C(C)=O)cc3)CC2)c(C)c1C | 95 | 41 | – | – | – |
| CC(=O)c1ccc(N2CCN(CC(C)CCC=C(C)C)CC2)cc1 (stereo not drawn) | 78 | 55 | – | – | – |
| Cc1ccc2[nH]c3c(c2c1)CCCC3NCCCN(C)C (stereo not drawn) | 88 | 94 | 1580 | – | EC50 [10]: 7500 nM; CC50 at 120 h [11]: > 10000 nM; CC50 at 120 h [5]: > 10000 nM |
| Nc1c(C(=O)Nc2cc(F)ccc2F)sc2nc(-c3ccncc3)ccc12 | – | – | 2220 | – | CC50 at 120 h [5]: > 10000 nM |

| SMILES | inhibition [1] [%] | inhibition [2] [%] | EC50 [3] [nM] | EC50 [4] [nM] | further results |
| --- | --- | --- | --- | --- | --- |
| CCc1ccc(-c2cn3ccccc3n2)cc1 | – | – | 9160 | 4720 | – |
| COc1ccc2cc1Oc1ccc(cc1)C[C@H]1c3cc(c(OC)cc3CCN1C)Oc1c(OC)c(OC)cc3c1[C@H](C2)N(C)CC3 [FANCHININ] | – | – | 2150 | – | CC50 at 120 h [5]: 5010 nM |
| Nc1c(C(=O)Nc2ccc(F)cc2)sc2nc(-c3ccc4c(c3)OCO4)ccc12 | – | – | 750 | – | CC50 at 120 h [5]: > 10000 nM |
| CCN1CCN(c2ccc(Nc3ccnc4cc5ccccc5cc34)cc2)CC1 | 76 | 51 | – | – | – |
| OCCNCc1cc(Br)ccc1OCc1ccc(Cl)cc1Cl | – | – | 4300 | 1990 | – |
| COc1cc(N)c(-c2ccc3cc(OC)c(OC)cc3n2)cc1OC | – | – | 2560 | 1830 | – |
| Clc1ccc(N2CCN(C3CCSC3)CC2)cc1 (stereo not drawn) | 42 | 51 | – | – | – |
| COc1cccc(Nc2nc(N)c3ccccc3n2)c1 | – | – | 4020 | 5990 | – |
| CC(=O)c1ccc(NC(=O)c2sc3nc(-c4cccs4)ccc3c2N)cc1 | – | – | 100 | – | CC50 at 120 h [5]: > 10000 nM |
| Cc1[nH]c2ccccc2c1-c1csc(-c2cccnc2)n1 | – | – | 3130 | 1700 | – |
| c1cncc(-c2nc(-c3c[nH]c4ccccc34)cs2)c1 | – | – | 270 | 830 | – |
| CC(=O)c1ccc(N2CCN(Cc3c(C)n(C)n(-c4ccccc4)c3=O)CC2)cc1 | 64 | 35 | – | – | – |
| CN1C[C@H](C(=O)N[C@]2(C)O[C@@]3(O)[C@@H]4CCCN4C(=O)[C@H](Cc4ccccc4)N3C2=O)C[C@@H]2c3cccc4[nH]cc(c34)C[C@H]21 [DIHYDROERGOTAMINE] | – | – | 6440 | – | CC50 at 120 h [5]: > 10000 nM |
| N#Cc1ccc(/C=C/c2ccc(F)cc2)cc1 | – | – | 1520 | 530 | – |
| O=C(Nc1ccccc1)Nc1ccc(F)c(Cl)c1 | 87 | 56 | – | – | – |
| CCOc1ccc(/N=N/c2ccc(N)cc2N)cc1 [ETHOXAZENE] | – | – | 4760 | – | CC50 at 120 h [5]: > 10000 nM |
| CCc1ccc(-c2cn3cc(C)ccc3n2)cc1 | – | – | 710 | 290 | – |
| CCOc1ccc(NC(=O)c2cc3ccccc3cc2O)cc1 | – | – | 130 | 40 | – |
| CC(=O)c1ccc(N2CCN(Cc3cccc(Cl)c3)CC2)cc1 | 84 | 31 | – | – | – |
| CNCCc1c(-c2ccccc2)n(-c2ccccc2)c2ccccc12 | 81 | 46 | – | – | – |
| COc1ccccc1OCCNCC(O)COc1cccc2[nH]c3ccccc3c12 (stereo not drawn) [CARVEDILOL] | – | – | 2280 | – | – |
| Nc1c(/N=N/c2ccc(-c3ccc(/N=N/c4cc(S(=O)(=O)O)c5ccccc5c4N)cc3)cc2)cc(S(=O)(=O)O)c2ccccc12 [CONGO RED] | – | – | 450 | – | CC50 at 120 h [5]: > 10000 nM |
| O=C(Nc1ccc(Cl)c(Cl)c1)NC(CC(=O)c1ccc([N+](=O)[O-])cc1)C(Cl)(Cl)Cl (stereo not drawn) | 83 | 61 | – | – | – |
| O=C(Nc1nc(-c2ccc(-c3ccccc3)cc2)cs1)C1CC1 | – | – | 250 | 190 | – |

| SMILES | inhibition [1] [%] | inhibition [2] [%] | EC50 [3] [nM] | EC50 [4] [nM] | further results |
| --- | --- | --- | --- | --- | --- |
| COc1ccc(-c2nc3cc(NC(=O)c4ccc(OCc5ccccc5)cc4)ccc3o2)cc1 | – | – | 70 | 2570 | – |
| COc1ccc(-c2ccc3c(N)c(C(=O)Nc4cc(OC)c(OC)c(OC)c4)sc3n2)cc1 | – | – | 420 | – | CC50 at 120 h [5]: > 10000 nM |
| COc1ccc(C(=O)Nc2ccc(-c3csc(C)n3)cc2)cc1 | – | – | 400 | 160 | – |
| COc1ccc(-c2ccc3c(N)c(C(=O)Nc4ccc(F)cc4)sc3n2)cc1OC | – | – | 240 | – | CC50 at 120 h [5]: > 10000 nM |
| CC(=O)c1ccc(N2CCN(Cc3ccccc3)CC2)cc1 | – | – | 710 | 620 | – |
| Cn1c(=N)n(CC(=O)c2ccc(Cl)cc2)c2ccccc21 | – | – | 7320 | 4970 | – |
| COc1ccc(CNC(=O)c2sc3nc(-c4cccs4)ccc3c2N)cc1 | – | – | 1830 | – | CC50 at 120 h [5]: > 10000 nM |
| O=C(Nc1ccc(Br)cc1)Nc1cc(Cl)cc(Cl)c1 | 91 | 51 | – | – | – |
| CC(=O)c1ccc(N2CCN(Cc3cccnc3)CC2)cc1 | – | – | – | 890 | – |
| CC(=O)c1ccc(N2CCN(Cc3ccc(F)cc3F)CC2)cc1 | 85 | 30 | – | – | – |
| CN1CCN(c2ccc(Nc3ccnc4cc(Cl)ccc34)cc2)CC1 | – | – | 1360 | 2070 | AUC(0-t) [6]: 0.82 µM·h; Cmax [7]: 410 nM; Kp [8]: 2.59; AUC(0-t) [9]: 2.12 µM·h |
| O=C(Nc1ccc(Cl)cc1)Nc1ccc(C(F)(F)F)cc1Cl | 17 | 63 | – | – | – |
| O=C(Nc1nc(-c2ccc3ccccc3c2)cs1)C1CC1 | – | – | 990 | 570 | – |
| CN1CCc2cccc3c2[C@H]1Cc1ccc(O)c(O)c1-3 [APOMORPHINE] | – | – | > 10000 | – | CC50 at 120 h [5]: > 10000 nM |
| CC(=O)c1ccc(N2CCN(Cc3cccc(Br)c3)CC2)cc1 | 67 | 39 | – | – | – |
| COc1ccc(-c2ccc3c(N)c(C(=O)Nc4cc(F)ccc4F)sc3n2)cc1 | – | – | > 10000 | – | CC50 at 120 h [5]: > 10000 nM |
| COc1ccc(-c2ccc3c(N)c(C(=O)Nc4ccc(F)cc4)sc3n2)cc1 | – | – | 140 | – | CC50 at 120 h [5]: > 10000 nM |
| Cc1ccc2[nH]c3c(c2c1)CCCC3NCC12CC3CC(CC(C3)C1)C2 (stereo not drawn) | 98 | 53 | – | – | – |
| O=C(Nc1ccc(Cl)cc1)Nc1ccc(Cl)c(F)c1 | 25 | 66 | – | – | – |
| CCc1ccc(-c2cn3cc(C)sc3n2)cc1 | – | – | 1780 | 520 | – |
| Oc1ccc(/C=C/c2cc(O)cc(O)c2)cc1 [RESVERATROL] | – | – | 3060 | 580 | – |
| CC(=O)c1ccc(N2CCN(Cc3ccccc3Cl)CC2)cc1 | 86 | 41 | – | – | – |
| Cc1ccc2[nH]c3c(c2c1)CCCC3NC1CCCCC1 (stereo not drawn) | 27 | 48 | – | – | – |
